Values quoted from earlier work in patent US20070259951A1, “Compounds, Compositions and Methods” (SMITHKLINE BEECHAM CORPORATION, priority 2003, published 2007).

System: A549 cells
Conditions: data provided by National Cancer Institute
For `NC(=O)NO` [hydroxyurea], the GI50 is given as 500000 nM. In the case of `COc1cccc2c1C(=O)c1c(O)c3c(c(O)c1C2=O)C[C@@](O)(C(=O)CO)C[C@@H]3O[C@H]1C[C@H](N)[C@H](O)[C@H](C)O1` [doxorubicin], the GI50 is given as 63 nM. In the case of `CC(=O)O[C@H]1C(=O)[C@@]2(C)[C@H]([C@H](OC(=O)c3ccccc3)[C@]3(O)C[C@H](OC(=O)[C@H](O)[C@@H](NC(=O)c4ccccc4)c4ccccc4)C(C)=C1C3(C)C)[C@]1(OC(C)=O)CO[C@@H]1C[C@@H]2O` [paclitaxel], the GI50 is given as 4 nM. For `O=c1[nH]cc(F)c(=O)[nH]1` [5-fluorouracil], the GI50 is given as 1000 nM.
